Patent EP4700024A1, “CYCLOPENTYLPYRAZOLAMINE DERIVATIVE AND USE THEREOF” (Chia Tai Tianqing Pharmaceutical Group Co., Ltd., priority 2023, dated 2024)
Read-outs that look alike come from different tables or passages of the source.

Assays:
CDK2 CycE1 kinase = CDK2 CycE1 kinase (Homo sapiens, UniProt P24941); experiment: Determination of inhibitory activity against CDK2 CycE1 kinase; type: biochemical
Experimental: 1.2 Determination of inhibitory activity against CDK2 CycE1 kinase
CDK2 CycEl kinase solution (concentration: 0.015 ng/µL) was added to assay wells at 6 µL/well, and different compounds dissolved in DMSO were added to the assay wells separately using a nanoliter pipettor, such that the final concentrations of the compounds were 300 nM to 0.07 nM. The wells were set in duplicate, and a control well was set. After a 30-min incubation of the above system, ATP (concentration: 50 µM or 5000 µM) was mixed with ULight-Myelin Basic Protein Peptide substrate (manufacturer: PerkinElmer, concentration: 0.25 µM) in a ratio of 1:1, and the mixture was added to the assay wells at 4 µL/well. The resultant mixture was left to react at room temperature for 2 h, and then 5 µL of EDTA was added to terminate the reaction, followed by the addition of 5 µL of a detection antibody (manufacturer: PerkinElmer, concentration: 8 nM). The mixture was incubated at room temperature for 1 h. The assay was performed using a PerkinElmer Envision multifunctional microplate reader (excitation: 320 nm, emission: 615 nm/665 nm), and IC50 was calculated by four-parameter fitting. […] Table 1: Inhibitory activity of compound against CDK2 CycA2 and CDK2 CycEl kinases

CDK2/CycA2 kinase = CDK2/CycA2 kinase (Homo sapiens, UniProt P24941); experiment: Determination of inhibitory activity against CDK2/CycA2 kinase; type: biochemical
Experimental: 1.1 Determination of inhibitory activity against CDK2/CycA2 kinase
CDK2/CycA2 kinase solution (concentration: 0.078 ng/µL) was added to assay wells at 6 µL/well, and different compounds dissolved in DMSO were added to the assay wells separately using a nanoliter pipettor, such that the final concentrations of the compounds were 1000 nM to 0.244 nM. The wells were set in duplicate, and a control well was set. After a 30-min incubation of the above system, ATP (concentration: 50 µM or 5000 µM) was mixed with ULight-Myelin Basic Protein Peptide substrate (manufacturer: PerkinElmer, concentration: 0.25 µM) in a ratio of 1:1, and the mixture was added to the assay wells at 4 µL/well. The resultant mixture was left to react at room temperature for 2 h, and then 5 µL of EDTA was added to terminate the reaction, followed by the addition of 5 µL of a detection antibody (manufacturer: PerkinElmer, concentration: 8 nM). The mixture was incubated at room temperature for 1 h. The assay was performed using a PerkinElmer Envision multifunctional microplate reader (excitation: 320 nm, emission: 615 nm/665 nm), and IC50 was calculated by four-parameter fitting.

[1] = read-out: CDK2/CycE1 10 µM ATP (kinase) IC50
[2] = CDK2/CycA2 10 µM ATP (kinase) IC50 (nM)
[3] = read-out: CDK2/CycA2 10 µM ATP (kinase) IC50

Compound	IC50 (CDK2 CycE1 kinase; [1])	IC50 (CDK2/CycA2 kinase; [2])	IC50 (CDK2 CycE1 kinase; 10 µM ATP (kinase))	IC50 (CDK2/CycA2 kinase; [3])
CC(C)NC(=O)OC1CCC(c2cc(Nc3ccc4c(c3)C[S+]([O-])C4)n[nH]2)C1 (centres unmarked) [Compound 23]	< 10 nM	–	–	–
CC(C)(C)NC(=O)OC1CCC(c2cc(Nc3ccc4c(c3)CS(=O)(=O)C4)[nH]n2)C1 (centres unmarked) [Compound 4]	–	< 10 nM	< 10 nM	–
CC1(C)CCN1C(=O)OC1CCC(c2cc(Nc3ccc4c(c3)C[S+]([O-])C4)[nH]n2)C1 (centres unmarked) [Compound 29]	< 10 nM	< 10 nM	–	–
CC(C)(C)NC(=O)OC1CCC(c2cc(Nc3ccc4c(c3)C[S+]([O-])C4)n[nH]2)C1 (centres unmarked) [Compound 14]	–	< 10 nM	< 10 nM	–
O=C(NC12CC(C1)C2)OC1CCC(c2cc(Nc3ccc4c(c3)C[S+]([O-])C4)n[nH]2)C1 (centres unmarked) [Compound 34]	< 10 nM	–	–	–
CC(C)(CCO)NC(=O)OC1CCC(c2cc(Nc3ccc4c(c3)CS(=O)(=O)C4)[nH]n2)C1 (centres unmarked) [Compound 6]	–	10 to 50 nM	< 10 nM	–
CC1(NC(=O)OC2CCC(c3cc(Nc4ccc5c(c4)C[S+]([O-])C5)[nH]n3)C2)CC1 (centres unmarked) [Compound 31]	< 10 nM	< 10 nM	–	–
O=C(NC1CC1)OC1CCC(c2cc(Nc3ccc4c(c3)C[S+]([O-])C4)[nH]n2)C1 (centres unmarked) [Compound 24]	–	–	10 to 50 nM	–
O=C(NC12CC(C1)C2)OC1CCC(c2cc(Nc3ccc4c(c3)C[S+]([O-])C4)n[nH]2)C1 (centres unmarked) [Compound 16]	–	< 10 nM	< 10 nM	–
CC(C)(C)NC(=O)OC1CCC(c2cc(Nc3ccc4c(c3)C[S+]([O-])C4)n[nH]2)C1 (centres unmarked) [Compound 36]	< 10 nM	–	–	–
CC1(NC(=O)OC2CCC(c3cc(Nc4ccc5c(c4)C[S+]([O-])C5)[nH]n3)C2)CC1 (centres unmarked) [Compound 32]	< 10 nM	–	–	–
O=C(NCC(F)F)OC1CCC(c2cc(Nc3ccc4c(c3)CS(=O)(=O)C4)[nH]n2)C1 (centres unmarked) [Compound 13]	–	< 10 nM	< 10 nM	–
COCc1cc(Nc2cc([C@H]3CC[C@@H](OC(=O)NC(C)C)C3)n[nH]2)cc2c1C(C)S(=O)(=O)C2 (some centres unmarked) [Compound 8]	10 to 50 nM	–	–	–
CC(C)NC(=O)OC1CCC(c2cc(Nc3ccc4c(c3)C[S+]([O-])C4)n[nH]2)C1 (centres unmarked) [Compound 2]	< 10 nM	–	–	10 to 50 nM
O=C(NC1CC1F)OC1CCC(c2cc(Nc3ccc4c(c3)C[S+]([O-])C4)[nH]n2)C1 (centres unmarked) [Compound 41]	–	–	< 10 nM	–
CCNC(=O)OC1CCC(c2cc(Nc3ccc4c(c3)C[S+]([O-])C4)[nH]n2)C1 (centres unmarked) [Compound 19]	–	–	10 to 50 nM	–
CC1(C)CCN1C(=O)OC1CCC(c2cc(Nc3ccc4c(c3)CS(=O)(=O)C4)[nH]n2)C1 (centres unmarked) [Compound 18]	–	–	–	< 10 nM
O=C(NC1CCC1)OC1CCC(c2cc(Nc3ccc4c(c3)CS(=O)(=O)C4)[nH]n2)C1 (centres unmarked) [Compound 1]	–	< 10 nM	< 10 nM	–

Compound	IC50 (CDK2 CycE1 kinase; [1])	IC50 (CDK2/CycA2 kinase; [2])	IC50 (CDK2 CycE1 kinase; 10 µM ATP (kinase))	IC50 (CDK2/CycA2 kinase; [3])
CC1CN(C)CCN1C(=O)OC1CCC(c2cc(Nc3ccc4c(c3)C[S+]([O-])C4)[nH]n2)C1 (centres unmarked) [Compound 20]	–	–	10 to 50 nM	–
CC1CN(C)CCN1C(=O)OC1CCC(c2cc(Nc3ccc4c(c3)CS(=O)(=O)C4)[nH]n2)C1 (centres unmarked) [Compound 21]	–	< 10 nM	< 10 nM	–
CC(C)NC(=O)OC1CCC(c2cc(Nc3ccc4c(c3)C[S+]([O-])C4)n[nH]2)C1 (centres unmarked) [Compound 22]	–	10 to 50 nM	< 10 nM	–
CCNC(=O)OC1CCC(c2cc(Nc3ccc4c(c3)C[S+]([O-])C4)[nH]n2)C1 (centres unmarked) [Compound 37]	10 to 50 nM	–	–	–
CC1(C)CCN1C(=O)OC1CCC(c2cc(Nc3ccc4c(c3)C[S+]([O-])C4)[nH]n2)C1 (centres unmarked) [Compound 30]	< 10 nM	10 to 50 nM	–	–
CC1(C)CCN1C(=O)OC1CCC(c2cc(Nc3ccc4c(c3)CS(=O)(=O)C4)[nH]n2)C1 (centres unmarked) [Compound 17]	–	< 10 nM	< 10 nM	–
CC(C)(C)NC(=O)OC1CCC(c2cc(Nc3ccc4c(c3)C[S+]([O-])C4)n[nH]2)C1 (centres unmarked) [Compound 35]	< 10 nM	–	–	–
CC(NC(=O)OC1CCC(c2cc(Nc3ccc4c(c3)CS(=O)(=O)C4)[nH]n2)C1)C1CC1 (centres unmarked) [Compound 3]	< 10 nM	–	–	< 10 nM
CC(C)NC(=O)OC1CCC(c2cc(Nc3ccc4c(c3)CCS4(=O)=O)n[nH]2)C1 (centres unmarked) [Compound 15]	–	–	< 10 nM	–
CC1(NC(=O)OC2CCC(c3cc(Nc4ccc5c(c4)C[S+]([O-])C5)[nH]n3)C2)CC1 (centres unmarked) [Compound 25]	–	10 to 50 nM	< 10 nM	–
CCNC(=O)OC1CCC(c2cc(Nc3ccc4c(c3)CS(=O)(=O)C4)[nH]n2)C1 (centres unmarked) [Compound 10]	–	< 10 nM	< 10 nM	–
CC(C)NC(=O)OC1CCC(c2cc(Nc3cc(F)c4c(c3)CS(=O)(=O)C4)[nH]n2)C1 (centres unmarked) [Compound 11]	–	< 10 nM	< 10 nM	–
CC1(C)CCN1C(=O)OC1CCC(c2cc(Nc3ccc4c(c3)C[S+]([O-])C4)[nH]n2)C1 (centres unmarked) [Compound 26]	–	< 10 nM	< 10 nM	–
O=C(NC12CC(C1)C2)OC1CCC(c2cc(Nc3ccc4c(c3)C[S+]([O-])C4)n[nH]2)C1 (centres unmarked) [Compound 33]	< 10 nM	–	–	–
C[C@H](NC(=O)O[C@@H]1CC[C@H](c2cc(Nc3ccc4c(c3)CS(=O)(=O)C4)[nH]n2)C1)C1CC1 [Compound 5]	< 10 nM	–	–	< 10 nM
O=C(NCC(F)(F)F)OC1CCC(c2cc(Nc3ccc4c(c3)CS(=O)(=O)C4)[nH]n2)C1 (centres unmarked) [Compound 12]	–	10 to 50 nM	< 10 nM	–
O=C(NC12CC(C1)C2)OC1CCC(c2cc(Nc3ccc4c(c3)CS(=O)(=O)C4)[nH]n2)C1 (centres unmarked) [Compound 7]	–	< 10 nM	< 10 nM	–
